Results taken from patent US6544989B2, “Benzazoles: benzoxazole, benzthiazole and benzimidazole derivatives” (Syngenta Limited, priority 1998, dated 2003).

Assays:
[1] = tested on: Phytophthora infestans lycopersici; format: in vivo; conditions: METHOD 2 (unbanded)
[2] = tested on: Erysiphe graminis f.sp. tritici; assay: Fungicidal test, Erysiphe graminis f.sp. tritici (ERYSGT) on wheat, PRCO; format: in vivo; conditions: 1 d Prot/Foir; METHOD 2 (unbanded)
Septoria nodorum = assay: Fungicidal test, Septoria nodorum (LEPTNO) on wheat, PRCO; format: in vivo; conditions: METHOD 2 (unbanded)
Puccinia recondita = assay: Fungicidal test, Puccinia recondita (PUCCRT) on wheat, PRCO; format: in vivo; conditions: METHOD 2 (unbanded)
Musca domestica = conditions: 500 ppm by weight; knockdown assessed 15 minutes after treatment
Meloidogyne incognita = assay: Nematode test, J2 infective juveniles of Meloidogyne incognita, mortality; conditions: 12.5 ppm; J2 infective juveniles suspended in solution; mortality after three days
Experimental: The activities of individual compounds of formula (I) were determined using a variety of pests. With the exception of nematodes, the pests were treated with a liquid composition containing 500 parts per million (ppm) by weight of a compound unless otherwise stated. Each composition was made by dissolving the compound in an acetone and ethanol (50:50 by volume) mixture and diluting the solution with water containing 0.05% by volume of a wetting agent, SYNPERONIC NP8, until the liquid composition contained the required concentration of the compound.
The test procedure for nematodes involved dissolving the compound in an acetone and ethanol (50:50 by volume) mixture and diluting the solution with water to obtain a final concentration of the compound of 12.5 ppm. J2 infective juveniles of Meloidogyne incognita were suspended in the solution in a glass vial and mortality assessed after a period of three days.

Uncinula necator = assay: Fungicidal test, Uncinula necator (UNCINE) on vines, PRCO; format: in vivo; conditions: METHOD 2 (unbanded)

Row | SMILES | PHYTIN 1 d Prot/Foir PRCO [1] | ERYSGT 1 d Prot/Foir PRCO [2] | LEPTNO 1 d Prot/Foir PRCO (Septoria nodorum) | PUCCRT 1 d Prot/Foir PRCO (Puccinia recondita) | MUSCDO AC = Musca domestica (knockdown), score (Musca domestica) | MELGIN = Meloidogyne incognita, grading of mortality (score) (Meloidogyne incognita) | UNCINE 1 d Prot/Foir PRCO (Uncinula necator)
1 | Cc1nc2ccc(CC(=O)Nc3snc(C)c3Cl)cc2o1 [2(A23)] | 100 | −3 | 53 | 77 | 0 (0 indicates less than 40% mortality) | 0 (0 indicates less than 40% mortality) | 
2 | Cc1nc2cc(CC(=O)N(C)c3snc(C)c3Cl)ccc2o1 [2(B3)] | 100 |  |  | 96 | 9 (9 indicates 80-100% mortality) | 0 (0 indicates less than 40% mortality) | 
3 | CCN(C(=O)Cc1ccc2oc(C)nc2c1)c1snc(C)c1Cl [2(C3)] | 150 |  |  | 74 | 9 (9 indicates 80-100% mortality) | 0 (0 indicates less than 40% mortality) | 
4 | CCCN(C(=O)Cc1ccc2oc(C)nc2c1)c1snc(C)c1Cl [2(D3)] | 59 |  |  | 96 | 0 (0 indicates less than 40% mortality) | 0 (0 indicates less than 40% mortality) | 
5 | C=CCN(C(=O)Cc1ccc2oc(C)nc2c1)c1snc(C)c1Cl [2(E3)] | 98 |  |  | 99 | 0 (0 indicates less than 40% mortality) | 0 (0 indicates less than 40% mortality) | 
6 | C#CCN(C(=O)Cc1ccc2oc(C)nc2c1)c1snc(C)c1Cl [2(F3)] | 100 |  |  | 90 | 0 (0 indicates less than 40% mortality) | 0 (0 indicates less than 40% mortality) | 
7 | COCN(C(=O)Cc1ccc2oc(C)nc2c1)c1snc(C)c1Cl [2(K3)] | 98 |  |  | 97 | 9 (9 indicates 80-100% mortality) | 0 (0 indicates less than 40% mortality) | 
8 | CCOCN(C(=O)Cc1ccc2oc(C)nc2c1)c1snc(C)c1Cl [2(L3)] | 82 |  |  | 93 | 9 (9 indicates 80-100% mortality) | 0 (0 indicates less than 40% mortality) | 
9 | COCCOCN(C(=O)Cc1ccc2oc(C)nc2c1)c1snc(C)c1Cl [2(M3)] | 83 |  |  | 68 | 0 (0 indicates less than 40% mortality) | 0 (0 indicates less than 40% mortality) | 
10 | CCCc1nc2ccc(CC(=O)Nc3snc(C)c3Cl)cc2o1 [4(A23)] | 100 | 59 | 63 | 100 | 0 (0 indicates less than 40% mortality) | 0 (0 indicates less than 40% mortality) | 
11 | CCCc1nc2cc(CC(=O)N(C)c3snc(C)c3Cl)ccc2o1 [4(B3)] | 100 |  |  | 48 | 0 (0 indicates less than 40% mortality) | 0 (0 indicates less than 40% mortality) | 
12 | CCCc1nc2cc(CC(=O)N(CC)c3snc(C)c3Cl)ccc2o1 [4(C3)] | 79 |  |  | 96 | 0 (0 indicates less than 40% mortality) | 0 (0 indicates less than 40% mortality) | 
13 | CCCc1nc2cc(CC(=O)N(CCC)c3snc(C)c3Cl)ccc2o1 [4(D3)] | 96 |  |  | 90 | 0 (0 indicates less than 40% mortality) | 0 (0 indicates less than 40% mortality) | 
14 | C=CCN(C(=O)Cc1ccc2oc(CCC)nc2c1)c1snc(C)c1Cl [4(E3)] | 95 |  |  | 97 | 0 (0 indicates less than 40% mortality) | 0 (0 indicates less than 40% mortality) | 
15 | C#CCN(C(=O)Cc1ccc2oc(CCC)nc2c1)c1snc(C)c1Cl [4(F3)] | 99 |  |  | 100 | 0 (0 indicates less than 40% mortality) | 0 (0 indicates less than 40% mortality) | 
16 | CCCc1nc2cc(CC(=O)N(COC)c3snc(C)c3Cl)ccc2o1 [4(K3)] | 98 |  |  | 100 | 0 (0 indicates less than 40% mortality) | 0 (0 indicates less than 40% mortality) | 
17 | CCCc1nc2cc(CC(=O)N(COCC)c3snc(C)c3Cl)ccc2o1 [4(L3)] | 100 |  |  | 100 | 9 (9 indicates 80-100% mortality) | 0 (0 indicates less than 40% mortality) | 
18 | CCCc1nc2cc(CC(=O)N(COCCOC)c3snc(C)c3Cl)ccc2o1 [4(M3)] | 81 |  |  | 85 | 0 (0 indicates less than 40% mortality) | 0 (0 indicates less than 40% mortality) | 

Row | SMILES | PHYTIN 1 d Prot/Foir PRCO [1] | ERYSGT 1 d Prot/Foir PRCO [2] | LEPTNO 1 d Prot/Foir PRCO (Septoria nodorum) | PUCCRT 1 d Prot/Foir PRCO (Puccinia recondita) | MUSCDO AC = Musca domestica (knockdown), score (Musca domestica) | MELGIN = Meloidogyne incognita, grading of mortality (score) (Meloidogyne incognita) | UNCINE 1 d Prot/Foir PRCO (Uncinula necator)
19 | C=CCN(C(=O)Cc1ccc2oc(CC(C)(C)C)nc2c1)c1snc(C)c1Cl [15(E3)] | 83 |  |  | 74 | 0 (0 indicates less than 40% mortality) | 0 (0 indicates less than 40% mortality) | 
20 | C#CCN(C(=O)Cc1ccc2oc(CC(C)(C)C)nc2c1)c1snc(C)c1Cl [15(F3)] | 100 |  |  | 95 | 0 (0 indicates less than 40% mortality) | 0 (0 indicates less than 40% mortality) | 
21 | COCN(C(=O)Cc1ccc2oc(CC(C)(C)C)nc2c1)c1snc(C)c1Cl [15(K3)] |  |  |  |  | 0 (0 indicates less than 40% mortality) | 0 (0 indicates less than 40% mortality) | 
22 | COCCOCN(C(=O)Cc1ccc2oc(CC(C)(C)C)nc2c1)c1snc(C)c1Cl [15(M3)] | 98 |  |  | 6 | 0 (0 indicates less than 40% mortality) | 0 (0 indicates less than 40% mortality) | 
23 | Cc1nsc(NC(=O)Cc2ccc3oc(C4CCCCC4)nc3c2)c1Cl [35(A3)] | 84 | 93 | −15 | 100 | 0 (0 indicates less than 40% mortality) | 0 (0 indicates less than 40% mortality) | 
24 | CC=Cc1nc2cc(CC(=O)Nc3snc(C)c3Cl)ccc2o1 [45(A3)] |  |  |  |  | 9 (9 indicates 80-100% mortality) | 0 (0 indicates less than 40% mortality) | 
25 | Cc1nsc(NC(=O)Cc2ccc3oc(C(F)(F)C(F)(F)Cl)nc3c2)c1Cl [86(A3)] |  |  |  |  |  | 0 (0 indicates less than 40% mortality) | 
26 | Cc1nsc(NC(=O)Cc2ccc3oc(Cl)nc3c2)c1Cl [174(A3)] |  |  |  |  | 0 (0 indicates less than 40% mortality) | 0 (0 indicates less than 40% mortality) | 
27 | Cc1nsc(NC(=O)Cc2ccc3oc(SCC#N)nc3c2)c1Cl [228(A3)] | 66 |  |  | 6 | 0 (0 indicates less than 40% mortality) | 0 (0 indicates less than 40% mortality) | 
28 | Cc1nsc(NC(=O)Cc2ccc3oc(-c4ccc([N+](=O)[O-])cc4Cl)nc3c2)c1Cl [267(A3)] |  |  |  |  |  | 0 (0 indicates less than 40% mortality) | 
29 | Cc1nsc(NC(=O)Cc2ccc3oc(-c4ccccc4F)nc3c2)c1Cl [272(A3)] |  |  |  |  |  | 0 (0 indicates less than 40% mortality) | 
30 | Cc1nsc(NC(=O)Cc2ccc3oc(Cc4cccs4)nc3c2)c1Cl [334(A3)] |  |  |  |  |  | 0 (0 indicates less than 40% mortality) | 
31 | Cc1nsc(NC(=O)Cc2ccc3oc(-c4ccncc4)nc3c2)c1Cl [339(A3)] | 0 | −7 | 0 | 31 | 0 (0 indicates less than 40% mortality) | 0 (0 indicates less than 40% mortality) | 
32 | Cc1nsc(NC(=O)Cc2ccc3oc(-c4cccnc4Cl)nc3c2)c1Cl [343(A3)] |  |  |  |  |  | 0 (0 indicates less than 40% mortality) | 
33 | Cc1nsc(NC(=O)Cc2ccc3oc(-c4ccno4)nc3c2)c1Cl [349(A3)] |  |  |  |  |  | 0 (0 indicates less than 40% mortality) | 
34 | Cc1nsc(NC(=O)Cc2ccc3oc(O)nc3c2)c1Cl [351(A3)] |  |  |  |  | 0 (0 indicates less than 40% mortality) | 0 (0 indicates less than 40% mortality) | 11
35 | Cc1nsc(NC(=O)Cc2ccc3oc(S)nc3c2)c1Cl [352(A3)] | 100 |  |  | 100 | 0 (0 indicates less than 40% mortality) | 0 (0 indicates less than 40% mortality) | 
